Measurements reported in the Kinase Knowledgebase extract (Sharma et al. 2016).

Target: MAPK14 (human) (UniProt Q16539)
Test: Assessment of MAPK14 Kinase Activity

MAPK14 (human), sequence (Q16539 whole entry, looked up): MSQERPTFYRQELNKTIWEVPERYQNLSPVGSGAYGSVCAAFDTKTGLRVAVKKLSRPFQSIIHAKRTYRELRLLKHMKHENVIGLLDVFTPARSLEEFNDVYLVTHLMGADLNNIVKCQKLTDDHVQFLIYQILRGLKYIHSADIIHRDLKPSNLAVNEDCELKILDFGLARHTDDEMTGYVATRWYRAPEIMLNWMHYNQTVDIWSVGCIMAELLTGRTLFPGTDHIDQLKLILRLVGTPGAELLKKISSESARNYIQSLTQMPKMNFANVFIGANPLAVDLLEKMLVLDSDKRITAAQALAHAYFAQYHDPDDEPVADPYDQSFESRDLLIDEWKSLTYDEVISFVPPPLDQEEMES

Compound | IC50
Cc1ccc(NC(=O)Nc2sc(C(C)(C)C)cc2C(=O)N2CCN(C)C(=O)C2(C)C)cc1-c1ccc(C(N)=O)nc1 | < 0.1 µM
Cc1ccc(NC(=O)Nc2cn(C(C)(C)C)nc2C(=O)N2CCNC(=O)C2(C)C)cc1-c1ccc(CN2CCOCC2)cn1 | < 0.1 µM
CC(=O)c1ccc(-c2cc(NC(=O)Nc3sc(C(C)(C)C)cc3C(=O)N3CCNC(=O)C3(C)C)ccc2C)cn1 | < 0.1 µM
Cc1ccc(NC(=O)Nc2sc(C(C)(C)C)cc2C(=O)N2CCNC(=O)C2(C)C)cc1-c1ccc(OCCN(C)C)nc1 | < 0.1 µM
Cc1ccc(NC(=O)Nc2cn(C(C)(C)C)nc2C(=O)N2CCN(C3CCN(C)C3)C(=O)C2(C)C)cc1-c1cccnc1 (stereo not given) | 0.1 to 1 µM
CC(C)(C)c1cc(C(=O)N2CCNC(=O)C2(C)C)c(NC(=O)Nc2cccc(-c3ccnc(F)c3)c2)s1 | < 0.1 µM
COc1ccc(-c2cc(NC(=O)Nc3cc(C(C)(C)C)sc3C(=O)N3CCN(C)C(=O)C3(C)C)cc(F)c2C)cn1 | < 0.1 µM
Cc1ccc(NC(=O)Nc2sc(C(C)(C)C)cc2C(=O)N2CCNC(=O)C2(C)C)cc1-c1ccc(N2CCC(N)C2)nc1 (stereo not given) | < 0.1 µM
CC(C)(C)c1cc(C(=O)N2CCNC(=O)C2(C)C)c(NC(=O)Nc2ccc(F)c(-c3ccc(OCCN4CCOCC4)nc3)c2)s1 | < 0.1 µM
CN(C)CCCOc1ccc(-c2cccc(NC(=O)Nc3sc(C(C)(C)C)cc3C(=O)N3CCNC(=O)C3(C)C)c2)cn1 | < 0.1 µM
Cc1ccc(NC(=O)Nc2sc(C(C)(C)C)cc2C(=O)N2CCNC(=O)C2(C)C)cc1N1C(=O)CN(C)C1=O | < 0.1 µM
Cc1ccc(NC(=O)Nc2sc(C(C)(C)C)cc2C(=O)N2CCN(C)C(=O)C2(C)C)cc1-c1ccc(C(C)O)nc1 (stereo not given) | < 0.1 µM
Cc1ccc(-c2ccc(N3CCOCC3)nc2)cc1NC(=O)Nc1sc(C(C)(C)C)cc1C(=O)N1CCNC(=O)C1(C)C | < 0.1 µM
Cc1ccc(NC(=O)Nc2sc(C(C)(C)C)cc2C(=O)N2CCNC(=O)C2(C)C)cc1-c1ccc(CN2CCOCC2)cn1 | < 0.1 µM
COc1ccc(-c2cc(NC(=O)Nc3sc(C(C)(C)C)cc3C(=O)N3CCN(C)C(=O)C3(C)C)cc(F)c2C)cn1 | < 0.1 µM
CCc1ccc(-c2cc(NC(=O)Nc3cc(C(C)(C)C)sc3C(=O)N3CCN(C)C(=O)C3(C)C)cc(F)c2C)cn1 | < 0.1 µM
Cc1ccc(NC(=O)Nc2sc(C(C)(C)C)cc2C(=O)N2CCNC(=O)C2(C)C)cc1-c1ccc(C(C)C)nc1 | < 0.1 µM
Cc1ccc(NC(=O)Nc2sc(C(C)(C)C)cc2C(=O)N2CCNC(=O)C2(C)C)cc1C#N | < 0.1 µM
C#Cc1ccc(-c2cc(NC(=O)Nc3sc(C(C)(C)C)cc3C(=O)N3CCNC(=O)C3(C)C)ccc2C)cn1 | < 0.1 µM
Cc1ccc(NC(=O)Nc2cn(C(C)(C)C)nc2C(=O)N2CCN(C)C(=O)C2(C)C)cc1-c1ccc(CN2CCOCC2)cn1 | < 0.1 µM
COc1ccc(NC(=O)Nc2sc(C(C)(C)C)cc2C(=O)N2CCNC(=O)C2(C)C)c(C)c1-c1ccncc1 | < 0.1 µM
Cc1ccc(NC(=O)Nc2sc(C(C)(C)C)cc2C(=O)N2CCN(C(=O)CN(C)C)CC2)cc1-c1cccnc1 | 0.1 to 1 µM
Cc1ccc(NC(=O)Nc2cc(C(C)(C)C)oc2C(=O)N2CCN(C)C(=O)C2(C)C)cc1-c1ccc(CN2CCOCC2)cn1 | < 0.1 µM
CCN1CCN(C(=O)c2sc(C(C)(C)C)cc2NC(=O)Nc2ccc(C)c(-c3ccc(CN4CCOCC4)nc3)c2)C(C)(C)C1=O | < 0.1 µM
CON(C)C(=O)c1ccc(-c2cc(NC(=O)Nc3sc(C(C)(C)C)cc3C(=O)N3CCN(C)C(=O)C3(C)C)ccc2C)cn1 | < 0.1 µM
CCC(C)(C)c1cc(C(=O)N2CCN(C)C(=O)C2(C)C)c(NC(=O)Nc2ccc(C)c(-c3ccc(CN4CCOCC4)nc3)c2)s1 | < 0.1 µM
Cc1ccc(NC(=O)Nc2sc(C(C)(C)C)cc2C(=O)N2CCNC(=O)C2(C)C)cc1-c1ccncc1 | < 0.1 µM
Cc1ccc(NC(=O)Nc2cn(C(C)(C)C)nc2C(=O)N2CCNC(=O)C2(C)C)cc1-c1ccc(C(C)C)nc1 | < 0.1 µM
CC(C)(C)c1cc(C(=O)N2CCNC(=O)C2(C)C)c(NC(=O)Nc2cccc(-c3cccnc3)c2)s1 | < 0.1 µM
Cc1ccc(NC(=O)Nc2cc(C(C)(C)C)sc2C(=O)N2CCN(C)C(=O)C2(C)C)cc1-c1ccc(N2CCOCC2)nc1 | < 0.1 µM
